The values below come from US20140148446A1, “COMPOUNDS THAT ENABLE ALTERNATIVE MITOCHONDRIAL ELECTRON TRANSFER” (University of North Texas Health Science Center, priority 2010, published 2014).

Assay [1] concerns HT-22 cells. Kind of assay: Protection against cell death (cell viability) induced by glutamate in HT-22 cells. Format: cell-based. Particulars: for Potency and efficacy of the protective action on cell viability (FIG. 10): glutamate toxicity, compared with methylene blue.
Method: HT-22 cells (gift from Dr. David Schubert, Salk Institute, San Diego, Calif.) were plated at 4,000 cells per well in 96 well plates and cultured over night. […] At the end of the 24 hours, the medium was removed and the plates were rinsed with PBS and incubated with 10 μM calcein-AM (Invitrogen, Carlsbad, Calif.) in PBS for 20 minutes. […] Cell culture wells treated with bleach before rinsing were used as blank.
The test system of assay [2] is HT-22 cells. Put plainly: Protection against mitochondrial membrane potential collapse induced by glutamate in HT-22 cells. Format: cell-based. Particulars: for Potency and efficacy of the protective action on mitochondrial membrane potential collapse (FIG. 12): compared with methylene blue.
The test system of assay [3] is HT-22 cells. Kind of assay: Protection against ROS production induced by glutamate in HT-22 cells. Format: cell-based. The settings on record: for Potency and efficacy of the protective action on reactive oxygen species production (FIG. 11): compared with methylene blue.
For assay [4], the system named is mitochondrial complex I-III. Format: biochemical, rat. The settings on record: for Inhibition of complex I-III activity: inhibitor alone. The method, then:
(§1) Fresh rat heart was removed and placed in ice-cold mitochondrial isolation buffer containing 210 mM mannitol, 70 mM sucrose, 5 mM HEPES, and 1 mM EDTA, pH 7. The heart was homogenized immediately, and the mitochondrial fraction was isolated by differential centrifugation as described previously (Trounce et al., 1996). Mitochondria were stored at −80° C. until subsequent analysis.
(§2) All mitochondrial activity assays were performed according to previous publications with minimal modifications for complex I (Lenaz et al., 2004), complex I-III, complex II, complex III, and II-III (Trounce et al., 1996). […] Complex I activity was monitored by adding NADH to the mix with or without rotenone/antimycin A. The final data were normalized to blank values at time zero. The reaction was monitored in a kinetic spectrophotometer at 340 nm. Complex I activity was measured in arbitrary units and normalized to control levels for statistical analysis. Isolated mitochondria equivalent to 40-200 μg mitochondrial protein was used for each assay, except for assays with inhibitors, when larger amount of mitochondria (3 to 5 folds) were used to ensure that inhibition was distinguishable. Final data were normalized to control levels. For complex I-III activity, the reaction was initiated with the addition of NADH, cyt c was used as final substrate and its reduction was monitored at 550 nm. For assay of complex II-III activity, succinate was added instead of NADH, and the electron transfer to cyt c was performed according to previous publications (Atamna et al., 2008). To test whether the electrons from the reduced form of MB (MBH2) can be transferred to cyt c in mitochondrial lysate, we added 10 μM 2,7-dichlorofluorescin (DCFH, Invitrogen, Carlsbad, Calif.) to the reaction system. Free radicals convert non-fluorescent DCFH to highly fluorescent DCF (Ex, 488 nm, and Em, 530 nm). In the presence of cyt c, which accepts electrons from MBH2, conversion of DCFH to DCF is decreased.

The subject of assay [5] is mitochondrial complex I. Put plainly: Mitochondrial complex I activity assay (NADH dehydrogenase). The format is biochemical, rat. The method, then: as §1, §2
In assay [6] the test system is mitochondrial complex II-III. Put plainly: Mitochondrial complex II-III activity in extracted mitochondria. Format: biochemical, rat. Particulars: inhibitor alone. Here is the method:
as §1
All mitochondrial activity assays were performed according to previous publications with minimal modifications for complex I (Lenaz et al., 2004), complex I-III, complex II, complex III, and II-III (Trounce et al., 1996). […] Complex I activity was monitored by adding NADH to the mix with or without rotenone/antimycin A. The final data were normalized to blank values at time zero. The reaction was monitored in a kinetic spectrophotometer at 340 nm. Complex I activity was measured in arbitrary units and normalized to control levels for statistical analysis. Isolated mitochondria equivalent to 40-200 μg mitochondrial protein was used for each assay, except for assays with inhibitors, when larger amount of mitochondria (3 to 5 folds) were used to ensure that inhibition was distinguishable. Final data were normalized to control levels. For complex I-III activity, the reaction was initiated with the addition of NADH, cyt c was used as final substrate and its reduction was monitored at 550 nm. […]

Setting [7] is: Mus musculus, glutamate, HT-22 cells, read-out: Protection against cell death (EC50).
Setting [8] is: glutamate, HT-22 cells, read-out: Protection against cell death (EC50).

Take `Clc1ccc2c(c1)Nc1ccccc1S2` [2-chlorophenothiazine]: the EC50 in assay [1] (setting [7]) was determined as 4.57 nM; in assay [2] (Mus musculus), 45.1 nM; in assay [3] (Mus musculus), 84.1 nM.
In the case of `CC(=O)N1c2ccc(N(C)C)cc2Sc2cc(N(C)C)ccc21` [Acetyl-MB, acetyl-methylene blue], in assay [4] (redox center disabled by N-acetylation), the “Ability to enhance electron transfer between complex I and III” value is reported as “completely lost its ability to enhance electron transfer”.
With `C1=Cc2ccccc2Nc2ccccc21` [Iminostilbene], the EC50 worked out at 189 nM in assay [1] (setting [7]), 61.7 nM in assay [2] (Mus musculus) and 484 nM in assay [3] (Mus musculus).
As to `CN(C)CCCN1c2ccccc2Sc2ccc(Cl)cc21` [chlorpromazine], the values for the EC50 in assay [1] (setting [7]), in assay [2] (Mus musculus) and in assay [3] (Mus musculus) were 2190 nM, 3270 nM and 2150 nM, respectively. Further, in assay [1] (HT-22 cells), the “Potency and efficacy of the protective action on cell viability (FIG. 10)” value (shortened to “Potency and efficacy … (FIG. 10)”) is “significantly decreases the potency and efficacy”. The “Potency and efficacy of the protective action on mitochondrial membrane potential collapse (FIG. 12)” value (from here on “Potency and efficacy … (FIG. 12)”) in assay [2] was “significantly decrease the potency and efficacy”. Also, the “Potency and efficacy of the protective action on reactive oxygen species production (FIG. 11)” value (“Potency and efficacy … (FIG. 11)” below) in assay [3] is “significantly decrease the potency and efficacy”.
As to `CN(C)CCCN1c2ccccc2CCc2ccccc21` [impramine], the EC50 in assay [1] (setting [7]) came to 51900 nM; in assay [2] (Mus musculus), 29100 nM; in assay [3] (Mus musculus) it was 84600 nM. For the same compound, the “Potency and efficacy … (FIG. 10)” value in assay [1] (HT-22 cells) was “significantly decreases the potency and efficacy”. For the same compound, the “Potency and efficacy … (FIG. 12)” value in assay [2] was “significantly decrease the potency and efficacy”. Moreover, the “Potency and efficacy … (FIG. 11)” value in assay [3] is “significantly decrease the potency and efficacy”.
With `Cc1cc2nc3ccc(N(C)C)cc3nc2cc1N.Cl` [neutral red], the “Potency and efficacy … (FIG. 10)” value in assay [1] (HT-22 cells) was “significantly decrease the potency and efficacy”. Also, in assay [1] (setting [8]), the EC50 was 5840 nM. Moreover, in assay [2], a half-maximal response (EC50) required 8960 nM; the “Potency and efficacy … (FIG. 12)” value was “significantly decrease the potency and efficacy”. In addition, in assay [3], the EC50 was determined as 15800 nM; the “Potency and efficacy … (FIG. 11)” value is “significantly decrease the potency and efficacy”.
As to `c1ccc2c(c1)Nc1ccccc1S2` [phenothiazine], the EC50 was found to be 19 nM in assay [1] (Mus musculus, HT-22, read-out: Protection against cell death (EC50)); 21.2 nM in assay [2] (Mus musculus); 57.2 nM in assay [3] (Mus musculus).
In the case of `CC(CN1c2ccccc2Sc2ccccc21)N(C)C` (stereo not drawn) [promethazine], the results for the EC50 in assay [1] (setting [7]), in assay [2] (Mus musculus) and in assay [3] (Mus musculus) were 2060 nM, 214 nM and 9690 nM, respectively. The “Potency and efficacy … (FIG. 10)” value in assay [1] (HT-22 cells) was “significantly decreases the potency and efficacy”. Moreover, in assay [2], the “Potency and efficacy … (FIG. 12)” value was “significantly decrease the potency and efficacy”. Besides, in assay [3], the “Potency and efficacy … (FIG. 11)” value is “significantly decrease the potency and efficacy”.
For the compound `C=C(C)[C@H]1Cc2c(ccc3c2O[C@@H]2COc4cc(OC)c(OC)cc4[C@@H]2C3=O)O1` [rotenone], the “Inhibition of complex I activity” value in assay [5] (CoQ1 as substrate) is recorded as “above 95%”; in assay [5] (MB as substrate, maximum rotenone concentrations) it was 26.7%. For the same compound, the “Inhibition of complex I-III activity” value in assay [4] worked out at 90%.
As for `Cc1cc2nc3ccc(N(C)C)cc3[s+]c2cc1N` [toluidine blue], the EC50 in assay [1] (setting [8]) was 1.75 nM; in assay [2] it was 1.54 nM; in assay [3], 0.106 nM.
Regarding antimycin A, the “Inhibition of complex II-III activity” value in assay [6] stood at 80%. The “Inhibition of complex I-III activity” value in assay [4] is 70%.
